Reference: patent US7803930B2, “Antisense modulation of apolipoprotein B-expression” (Isis Pharmaceuticals, Inc., priority 2002, dated 2010)
Read-outs that look alike come from different tables or passages of the source.

Key:
[1] = format: in vivo, mouse; conditions: for Cholesterol Levels / Glucose Levels / Lipoprotein Levels HDL / Lipoprotein Levels LDL / Lipoprotein Levels VLDL: ApoE knockout mice, high fat diet, six weeks; for Liver Enzyme Levels ALT / Liver Enzyme Levels AST: mouse, in vivo, ip
Source text: Female ApoE knockout mice ranged in age from 5 to 7 weeks and were placed on a normal diet for 2 weeks before study initiation. ApoE knockout mice were then fed ad libitum a 60% fat diet, with 0.15% added cholesterol to induce dyslipidemia and obesity. Control animals were maintained on a high-fat diet with no added cholesterol. […]
At study termination and forty eight hours after the final injections, animals were sacrificed and evaluated for target mRNA levels in liver by RT-PCR methods verified by Northern Blot analysis, glucose levels, cholesterol and lipid levels by HPLC separation methods and triglyceride and liver enzyme levels (performed by LabCorp Preclinical Services; San Diego, Calif.).
Data are normalized to saline controls.

[2] = tested on: mouse apolipoprotein B protein; assay: High fat fed mice (Example 51): serum apolipoprotein B protein, immunoblot; format: in vivo; conditions: high fat fed C57Bl/6 mice; 50 mg/kg i.p. twice weekly
Source text: Furthermore, at 1, 2, 3 and 4 weeks of treatment, a inverse correlation between inhibition of target mRNA and cholesterol levels (total, HDL and LDL) is observed, with cholesterol levels lowering as percent inhibition of apolipoprotein B mRNA becomes greater. Serum samples were subjected to immunoblot analysis using an antibody to detect mouse apolipoprotein B protein (Gladstone Institute, San Francisco, Calif.).

[3] = Lean mice, 6 weeks (Example 66): serum lipids and liver enzymes; format: in vivo, mouse; conditions: for HDL-cholesterol / LDL-cholesterol / Liver Enzymes ALT / Liver Enzymes AST / Total cholesterol / Triglycerides: serum
Description: The accumulation of lipids in liver tissue was also evaluated in lean mice. Male […] mice (Charles River Laboratories (Wilmington, Mass.) at 6 to 7 weeks of age were maintained on a standard rodent diet and were treated twice weekly with intraperitoneal injections of 25 or 50 mg/kg 147764 (SEQ ID NO: 109) or 147483 (SEQ ID NO: 79) for 6 weeks. Saline treated animals served as controls. Each treatment group was comprised of 4 animals. Animals were sacrificed after the 6 week treatment period, at which point liver tissue and serum were collected.
Total cholesterol, LDL-cholesterol, HDL-cholesterol and triglycerides in serum were measured by routine clinical analysis using an Olympus Clinical Analyzer (Olympus America Inc., Melville, N.Y.). The liver enzymes ALT and […] in serum were also measured using the Olympus Clinical Analyzer.

[4] = tested on: human apolipoprotein B protein; assay: Transgenic mice dosing study (Example 52): ELISA of human apolipoprotein B protein in liver; format: in vivo, human transgene in mouse
[5] = tested on: mouse apolipoprotein B protein; assay: Transgenic mice dosing study (Example 52): immunoblot of mouse apolipoprotein B protein in serum and liver; format: in vivo
[6] = tested on: human apolipoprotein B protein; assay: Apolipoprotein B protein in primary human hepatocytes, immunoblot; format: cell-based; conditions: 50, 150 and 300 nM, 24 hours, 48 hours
Description: Protein samples from 50, 150 and 300 nM doses after 24 hours and 150 and 300 nM doses after 48 hours were subjected to immunoblot analysis as described by other examples herein, using a human apolipoprotein B protein specific antibody purchased from US Biological (Swampscott, Mass.).

[7] = Long-term study in lean Cynomolgous monkeys (Example 64): toxicity (steatosis, APTT, histology, kidney); format: in vivo, Cynomolgous monkey
Description: Male and female Cynomologous monkeys are treated with 2, 4 or 12 mg/kg of ISIS 301012 intravenously or 2 or 20 mg/kg subcutaneously at a frequency of every two days for the first week, and every 4 days thereafter, for 1 and 3 month treatment periods. Saline-treated animals serve as controls. Each treatment group includes 2 to 3 animals of each sex.
At a one month interval and at the 3 month study termination, the animals are sacrificed and evaluated for target expression in liver, lipid levels in serum and indicators of toxicity. Liver samples are procured, RNA is isolated and apolipoprotein B mRNA expression is measured by real-time PCR as described in other examples herein. Serum lipids, including total cholesterol, LDL-cholesterol, HDL-cholesterol and triglycerides, are evaluated by routine clinical analysis using an Olympus Clinical Analyzer (Olympus America Inc., Melville, N.Y.). Ratios of LDL-cholesterol to HDL-cholesterol and total cholesterol to HDL-cholesterol are also calculated. Analyses of serum ALT and AST, inflammatory infiltrates in tissue and basophilic granules in tissue provide an assessment of toxicities related to the treatment. Hepatic steatosis, or accumulation of lipids in the liver, is assessed by routine histological analysis with oil red 0 stain and measurement of liver tissue triglycerides using a Triglyceride GPO Assay (Sigma-Aldrich, St. Louis, Mo.).
Hepatic steatosis, or accumulation of lipids in the liver, was not observed following 4 weeks of treatment with the doses indicated.

GTCCCTGAAGATGTCAATGC (2'-MOE gapmer, further chemistry not given here) [ISIS 147764]
Cholesterol Levels ([1]; 5 mg/kg i.p. every three days): 1630 mg/dL | Glucose Levels ([1]; 5 mg/kg i.p. every three days): 195 mg/dL | Lipoprotein Levels HDL ([1]; 5 mg/kg i.p. every three days): 49 mg/dL | Lipoprotein Levels LDL ([1]; 5 mg/kg i.p. every three days): 475 mg/dL | Lipoprotein Levels VLDL ([1]; 5 mg/kg i.p. every three days): 1111 mg/dL | Cholesterol Levels ([1]; 25 mg/kg i.p. every three days): 1750 mg/dL | Glucose Levels ([1]; 25 mg/kg i.p. every three days): 209 mg/dL | Lipoprotein Levels HDL ([1]; 25 mg/kg i.p. every three days): 62 mg/dL | Lipoprotein Levels LDL ([1]; 25 mg/kg i.p. every three days): 500 mg/dL | Lipoprotein Levels VLDL ([1]; 25 mg/kg i.p. every three days): 1194 mg/dL | Cholesterol Levels ([1]; 50 mg/kg i.p. every three days): 1490 mg/dL | Glucose Levels ([1]; 50 mg/kg i.p. every three days): 191 mg/dL | Lipoprotein Levels HDL ([1]; 50 mg/kg i.p. every three days): 61 mg/dL | Lipoprotein Levels LDL ([1]; 50 mg/kg i.p. every three days): 325 mg/dL | Lipoprotein Levels VLDL ([1]; 50 mg/kg i.p. every three days): 1113 mg/dL | Liver Enzyme Levels ALT ([1]; 5 mg/kg): 48 IU/L | Liver Enzyme Levels AST ([1]; 5 mg/kg): 50 IU/L | Liver Enzyme Levels ALT ([1]; 25 mg/kg): 59 IU/L | Liver Enzyme Levels AST ([1]; 25 mg/kg): 60 IU/L | Liver Enzyme Levels ALT ([1]; 50 mg/kg): 87 IU/L | Liver Enzyme Levels AST ([1]; 50 mg/kg): 85 IU/L | apolipoprotein B protein in serum (immunoblot) [2]: markedly reduced within 48 hours | serum lipids relative to saline-treated control animals ([3]; 25 or 50 mg/kg i.p. twice weekly): lowers serum lipids | HDL-cholesterol ([3]; 25 mg/kg i.p. twice weekly): 79 mg/dL | LDL-cholesterol ([3]; 25 mg/kg i.p. twice weekly): 29 mg/dL | Liver Enzymes ALT ([3]; 25 mg/kg i.p. twice weekly): 47 IU/L | Liver Enzymes AST ([3]; 25 mg/kg i.p. twice weekly): 81 IU/L | Total cholesterol ([3]; 25 mg/kg i.p. twice weekly): 114 mg/dL | Triglycerides ([3]; 25 mg/kg i.p. twice weekly): 80 mg/dL | HDL-cholesterol ([3]; 50 mg/kg i.p. twice weekly): 38 mg/dL | LDL-cholesterol ([3]; 50 mg/kg i.p. twice weekly): 18 mg/dL | Liver Enzymes ALT ([3]; 50 mg/kg i.p. twice weekly): 48 IU/L | Liver Enzymes AST ([3]; 50 mg/kg i.p. twice weekly): 101 IU/L | Total cholesterol ([3]; 50 mg/kg i.p. twice weekly): 57 mg/dL | Triglycerides ([3]; 50 mg/kg i.p. twice weekly): 30 mg/dL

ISIS 301012: SEQ ID NO: 247, antisense oligonucleotide targeted to human apolipoprotein B (antisense GCCTCAGTCTGCTTCGCACC; chemistry not given here)
reduction in human apolipoprotein B protein in liver (ELISA) ([4]; 10 mg/kg): 80% | reduction in human apolipoprotein B protein in liver (ELISA) ([4]; 20 mg/kg (so in the source)): 82% | expression of the mouse apolipoprotein B protein in liver (immunoblot) [5]: does not change significantly | expression of the mouse apolipoprotein B protein in serum (immunoblot) [5]: no significant change | apolipoprotein B protein in human hepatocytes (immunoblot) [6]: reduced in a dose-dependent manner | functional changes in kidney [7]: No functional changes | Hepatic steatosis ([7]; 4 weeks of treatment): not observed | dose-related histological findings ([7]; 12 and 20 mg/kg): basophilic granules in the liver and kidney | transient increase in activated partial thromboplastin time (APTT) ([7]; 12 and 20 mg/kg, during the first 4 hours): 1.2-1.3 fold
